Laboratory results: US8481539B2, “Alkynylaryl compounds and salts thereof, pharmaceutical compositions comprising same, methods of preparing same and uses of same” (Bayer Intellectual Property GmbH, priority 2007, dated 2013)

How the values were obtained:
human VEGFR2 = target: T1, human VEGFR2 (Homo sapiens, UniProt P35968); experiment: VEGFR2 HTRF Assay (assay 5); format: biochemical; conditions: pIC50 class; 10 μM ATP; read-out: Enzymatic VEGFR2 activity (assay 5)
T1 construct: GST-tagged recombinant kinase domain of the human VEGFR2; GST; host or cells: SF-9 cells
From the text: Assay 5: VEGFR2 HTRF Assay
VEGFR2 inhibitory activity of compounds of the present invention was quantified employing the VEGFR2 HTRF assay as described in the following paragraphs.
GST-tagged recombinant kinase domain of the human VEGFR2 expressed in SF-9 cells was used as kinase. As substrate for the kinase reaction the biotinylated peptide biotin-Ahx-DFGLARDMYDKEYYSVG (C-terminus in acid form) was used which can be purchased e.g. form the company Biosynthan GmbH (Berlin-Buch, Germany). VEGFR2 was incubated for 45 min at 22° C. in the presence of different concentrations of test compounds in 5 μl assay buffer [50 mM Hepes/NaOH pH 7.0, 25 mM MgCl2, 5 mM MnCl2, 1.0 mM dithiothreitol, 0.1 mM sodium ortho-vanadate, 10 μM adenosine-tri-phosphate (ATP), 0.5 μM substrate, 0.001% (v/v) Nonidet-P40 (Sigma), 1% (v/v) dimethylsulfoxide]. The concentration of VEGFR2 was adjusted depending of the activity of the enzyme lot and was chosen appropriate to have the assay in the linear range. The reaction was stopped by the addition of 5 μl of a solution of HTRF detection reagents (0.1 μM streptavidine-XLent and 2 nM PT66-Eu-Chelate, an europium-chelate labelled anti-phospho-tyrosine antibody from Perkin Elmer) in an aqueous EDTA-solution (125 mM EDTA, 0.2% (w/v) bovine serum albumin in 50 mM HEPES/NaOH pH 7.0).
(§1) The resulting mixture was incubated for 1 h at 22° C. to allow the binding of the biotinylated phosphorylated peptide to the streptavidine-XLent and the PT66-Eu-Chelate. Subsequently the amount of phosphorylated substrate was evaluated by measurement of the resonance energy transfer from the PT66-Eu-Chelate to the streptavidine-XLent. Therefore, the fluorescence emissions at 620 nm and 665 nm after excitation at 350 nm was measured in a HTRF reader, e.g. a Rubystar (BMG Labtechnologies, Offenburg, Germany) or a Viewlux (Perkin-Elmer). The ratio of the emissions at 665 nm and at […] was taken as the measure for the amount of phosphorylated substrate. The data were normalized (enzyme reaction without inhibitor=0% inhibition, all other assay components but no enzyme=100% inhibition) and IC50 values were calculated by a 4 parameter fit using an inhouse software.

human Trk-A = target: T2, human Trk-A (Homo sapiens, UniProt P04629); experiment: TrkA HTRF Assay (assay 7); format: biochemical; conditions: pIC50 class; 10 μM ATP; read-out: Enzymatic TrkA activity (assay 7)
T2 construct: C-terminal fragment of human Trk-A (amino acids G443-G796); GST; His; purchased Proqinase [Freiburg i.Brsg., Germany]; host or cells: insect cells [SF9]
From the text: Trk-A inhibitory activity of compounds of the present invention was quantified employing the Trk-A HTRF assay as described in the following paragraphs.
As kinase, a GST-His fusion protein containing a C-terminal fragment of human Trk-A (amino acids G443-G796, expressed in insect cells [SF9] and purified by affinity chromatography, purchased from Proqinase [Freiburg i.Brsg., Germany] was used. As substrate for the kinase reaction the biotinylated poly-Glu, Tyr (4:1) copolymer (#61GT0BLA) from Cis Biointernational (Marcoule, France) was used. For the assay 50 nl of a 100 fold concentrated solution of the test compound in DMSO was pipetted into a black low volume 384 well microtiter plate (Greiner Bio-One, Frickenhausen, Germany), 2 μl of a solution of TrkA in aqueous assay buffer [8 mM MOPS/NaOH pH 7.0, 10 mM Mg(OAc)2, 1 mM dithiothreitol, 0.01% (v/v) NP-40 (Fluka), 0.2 mM EDTA] were added and the mixture was incubated for 15 min at 22° C. to allow pre-binding of the test compounds to the enzyme before the start of the kinase reaction. Then the kinase reaction was started by the addition of 3 μl of a solution of adenosine-tri-phosphate (ATP, 16.7 μM=>final conc. in the 5 μl assay volume is 10 μM) and substrate (2.27 μg/ml=>final conc. in the 5 μl assay volume is 1.36 μg/ml [˜30 nM]) in assay buffer and the resulting mixture was incubated for a reaction time of 60 min at 22° C. The concentration of Trk-A in the assay was adjusted depending of the activity of the enzyme lot and was chosen appropriate to have the assay in the linear range, typical enzyme concentrations were in the range of about 60 pg/μl (final conc. in the 5 μl assay volume). The reaction was stopped by the addition of 5 μl of a solution of HTRF detection reagents (200 nM streptavidine-XLent [Cis Biointernational] and 1.4 nM PT66-Eu-Chelate, an europium-chelate labelled anti-phospho-tyrosine antibody from Perkin Elmer) in an aqueous EDTA-solution (100 mM EDTA, 0.2% (w/v) bovine serum albumin in 50 mM HEPES/NaOH pH 7.5).
as §1, with “incubated” for “incubated for”, “normalised” for “normalized”, “inhibition).” for “inhibition) and IC50 values were calculated by a 4 parameter fit using an inhouse software.”

T1 sequence (P35968 834-1162 limits assumed): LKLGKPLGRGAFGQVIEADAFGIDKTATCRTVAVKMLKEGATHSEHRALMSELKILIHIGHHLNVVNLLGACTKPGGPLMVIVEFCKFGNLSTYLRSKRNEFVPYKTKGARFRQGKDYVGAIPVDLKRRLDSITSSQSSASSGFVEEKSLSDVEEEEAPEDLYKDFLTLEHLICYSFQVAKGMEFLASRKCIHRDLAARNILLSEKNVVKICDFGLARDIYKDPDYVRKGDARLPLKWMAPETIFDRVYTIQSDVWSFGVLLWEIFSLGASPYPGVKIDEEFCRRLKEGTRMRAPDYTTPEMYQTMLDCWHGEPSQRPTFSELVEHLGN
T2 sequence (P04629 443-796): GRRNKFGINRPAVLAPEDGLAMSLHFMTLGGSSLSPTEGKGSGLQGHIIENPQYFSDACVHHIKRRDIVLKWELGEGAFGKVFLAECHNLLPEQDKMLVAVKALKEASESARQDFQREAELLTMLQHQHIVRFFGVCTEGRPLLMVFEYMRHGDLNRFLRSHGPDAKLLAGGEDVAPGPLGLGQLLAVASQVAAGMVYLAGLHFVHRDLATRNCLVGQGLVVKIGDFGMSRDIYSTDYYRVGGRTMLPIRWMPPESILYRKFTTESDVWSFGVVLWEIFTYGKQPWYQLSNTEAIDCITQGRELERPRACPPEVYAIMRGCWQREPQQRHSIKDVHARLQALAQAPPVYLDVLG

Row | Compound | IC50 (human VEGFR2) | IC50 (human Trk-A)
1 | Cn1ncc2c(C#Cc3cc(NC(=O)c4cccc(C(F)(F)F)c4)ccc3F)cncc21 [Example 1.9, N-[4-Fluoro-3-(1-methyl-1H-pyrazolo[3,4-c]pyridin-4-ylethynyl)-phenyl]-3-trifluoromethyl-benzamide] | < 1 µM | ≥ 10 µM
2 | Cc1ccc(NC(=O)c2cccc(C(F)(F)F)c2)cc1C#Cc1cncc2c1cnn2C [Example 1.6, N-[4-Methyl-3-(1-methyl-1H-pyrazolo[3,4-c]pyridin-4-ylethynyl)-phenyl]-3-trifluoromethyl-benzamide] | < 1 µM | ≥ 10 µM
3 | Cn1ncc2c(C#Cc3cccc(NC(=O)c4cccc(C(F)(F)F)c4)c3)cncc21 [Example 1.5, N-[3-(1-Methyl-1H-pyrazolo[3,4-c]pyridin-4-ylethynyl)-phenyl]-3-trifluoromethyl-benzamide] | < 1 µM | ≥ 10 µM
4 | Cn1ncc2c(C#Cc3cccc(NC(=O)Nc4ccccc4)c3)cncc21 [Example 2.1, 1-[3-(1-Methyl-1H-pyrazolo[3,4-c]pyridin-4-ylethynyl)-phenyl]-3-phenyl-urea] | < 1 µM | ≥ 10 µM
5 | Cc1ccc(NC(=O)Nc2cccc(C(F)(F)F)c2)cc1C#Cc1cncc2c1cnn2C [Example 2.4, 1-[4-Methyl-3-(1-methyl-1H-pyrazolo[3,4-c]pyridin-4-ylethynyl)-phenyl]-3-(3-trifluoromethyl-phenyl)-urea] | < 1 µM | ≥ 10 µM
